# Biological target: T1, ER (Homo sapiens, UniProt P03372)
# T1 construct: host or cells: T47D and MCF7 human breast cancer cells
# T1 sequence (P03372 1-595): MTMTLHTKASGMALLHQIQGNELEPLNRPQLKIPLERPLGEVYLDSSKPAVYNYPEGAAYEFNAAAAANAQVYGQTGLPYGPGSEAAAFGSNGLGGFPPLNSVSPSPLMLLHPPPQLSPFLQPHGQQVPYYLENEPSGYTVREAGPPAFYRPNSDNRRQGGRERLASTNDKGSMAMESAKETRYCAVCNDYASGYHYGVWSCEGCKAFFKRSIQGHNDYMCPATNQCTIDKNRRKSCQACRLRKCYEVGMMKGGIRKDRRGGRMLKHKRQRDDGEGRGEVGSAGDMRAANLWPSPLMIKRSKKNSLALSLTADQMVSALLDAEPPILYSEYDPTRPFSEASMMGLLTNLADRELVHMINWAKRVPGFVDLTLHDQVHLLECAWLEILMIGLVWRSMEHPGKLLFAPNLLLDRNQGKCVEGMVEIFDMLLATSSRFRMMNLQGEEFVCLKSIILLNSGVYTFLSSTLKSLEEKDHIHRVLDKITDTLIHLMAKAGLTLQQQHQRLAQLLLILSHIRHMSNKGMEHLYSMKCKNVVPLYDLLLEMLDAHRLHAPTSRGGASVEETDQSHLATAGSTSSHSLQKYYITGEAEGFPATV
# Assay: ER degradation activity, in-cell western blot analysis in T47D cells
# Type: cell-based
# Settings: 16 hours, Table A does not say which cell line (T47D or MCF7), read-out: Potency (DC50)
# Summary of the method: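 Read-out is near-infrared fluorescence from an in-cell western, expressed as ER percentage relative to untreated and DMSO controls taken as 100%. T47D breast cancer cells received compound for 16 h in 0.5% DMSO.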
row,SMILES,DC50
1,"C[C@@H]1Cc2c([nH]c3ccccc23)[C@H](c2c(F)cc(CN3CCC4(CCC(C(=O)N5Cc6cc7c(cc6C5)C(=O)N(C5CCC(=O)NC5=O)C7=O)CC4)CC3)cc2F)N1CC(F)F (stereo partly drawn) [E 383, 6-(3-(4-((1S,3R)-2-(2,2-difluoroethyl)-3-methyl-2,3,4,9-tetrahydro-1H-pyrido[3,4-b]indol-1-yl)-3,5-difluorobenzyl)-3-azaspiro[5.5]undecane-9-carbonyl)-2-(2,6-dioxopiperidin-3-yl)-6,7-dihydropyrrolo[3,4-f]isoindole-1,3(2H,5H)-dione]",> 100 nM
2,"C[C@@H]1Cc2c([nH]c3ccccc23)[C@@H](c2c(F)cc(N3CCC(N4CCC(CC(=O)N5Cc6cc7c(cc6C5)C(=O)N(C5CCC(=O)NC5=O)C7)CC4)CC3)cc2F)N1CC(F)F (stereo partly drawn) [E 94, 3-(6-(2-(1′-(4-((1R,3R)-2-(2,2-difluoroethyl)-3-methyl-2,3,4,9-tetrahydro-1H-pyrido[3,4-b]indol-1-yl)-3,5-difluorophenyl)-[1,4′-bipiperidin]-4-yl)acetyl)-1-oxo-3,5,6,7-tetrahydropyrrolo[3,4-f]isoindol-2(1H)-yl)piperidine-2,6-dione]",< 10 nM
3,"O=C1CCC(N2C(=O)c3cc4c(cc3C2=O)CN(CC(=O)N2CCC3(CC2)CCN(c2c(F)cc([C@@H]5c6ccc(O)cc6CC[C@@H]5c5ccccc5)cc2F)CC3)C4)C(=O)N1 (mixture of isomers) [E 175, Rac-6-(2-(9-(2,6-difluoro-4-((1R,2S)-6-hydroxy-2-phenyl-1,2,3,4-tetrahydronaphthalen-1-yl)phenyl)-3,9-diazaspiro[5.5]undecan-3-yl)-2-oxoethyl)-2-(2,6-dioxopiperidin-3-yl)-6,7-dihydropyrrolo[3,4-f]isoindole-1,3(2H,5H)-dione]",> 100 nM
4,"C[C@@H]1Cc2cc(O)ccc2C(c2ccc(N3CCC(C(=O)N4CCC(N5Cc6cc7c(cc6C5)C(=O)N(C5CCC(=O)NC5=O)C7=O)CC4)CC3)cc2)N1CC(F)F (stereo partly drawn) [E 321, 6-(1-(1-(4-((3R)-2-(2,2-difluoroethyl)-6-hydroxy-3-methyl-1,2,3,4-tetrahydroisoquinolin-1-yl)phenyl)piperidine-4-carbonyl)piperidin-4-yl)-2-(2,6-dioxopiperidin-3-yl)-6,7-dihydropyrrolo[3,4-f]isoindole-1,3(2H,5H)-dione]",< 10 nM
5,"O=C1CCC(N2C(=O)c3cc4c(cc3C2=O)CN(C(=O)[C@H]2CC[C@H](N3CC(Nc5ccc([C@H]6c7ccc(O)cc7CC[C@H]6c6ccccc6)cc5)C3)CC2)C4)C(=O)N1 (stereo partly drawn) [E 390, 2-(2,6-dioxopiperidin-3-yl)-6-((1S,4r)-4-(3-((4-((1S,2R)-6-hydroxy-2-phenyl-1,2,3,4-tetrahydronaphthalen-1-yl)phenyl)amino)azetidin-1-yl)cyclohexane-1-carbonyl)-6,7-dihydropyrrolo[3,4-f]isoindole-1,3(2H,5H)-dione]",10 to 100 nM
6,"O=C1CCC(N2Cc3cc4c(cc3C2=O)CN(C2CCN(CC3CN(c5ccc([C@H]6c7ccc(O)cc7CC[C@H]6c6ccc(F)cc6)cc5)C3)CC2)C4)C(=O)N1 (stereo partly drawn) [E 279, 3-(6-(1-((1-(4-((1S,2R)-2-(4-fluorophenyl)-6-hydroxy-1,2,3,4-tetrahydronaphthalen-1-yl)phenyl)azetidin-3-yl)methyl)piperidin-4-yl)-1-oxo-3,5,6,7-tetrahydropyrrolo[3,4-f]isoindol-2(1H)-yl)piperidine-2,6-dione]",10 to 100 nM
7,"O=C1CCC(N2C(=O)c3cc4c(cc3C2=O)CN(C2CCC(C(=O)N3CCCC(Oc5ccc([C@@H]6c7ccc(O)cc7CC[C@@H]6c6ccccc6)cc5)C3)CC2)C4)C(=O)N1 (mixture of isomers) [E 23, Rac-2-(2,6-dioxopiperidin-3-yl)-6-(4-(3-(4-((1R,2S)-6-hydroxy-2-phenyl-1,2,3,4-tetrahydronaphthalen-1-yl)phenoxy)piperidine-1-carbonyl)cyclohexyl)-6,7-dihydropyrrolo[3,4-f]isoindole-1,3(2H,5H)-dione]",10 to 100 nM
8,"C[C@@H]1Cc2c([nH]c3ccccc23)[C@@H](c2c(F)cc(C3CCC(CN4CC(CN5Cc6cc7c(cc6C5)C(=O)N(C5CCC(=O)NC5=O)C7=O)C4)CC3)cc2F)N1CC(F)F (stereo partly drawn) [E 283, 6-((1-((4-(4-((1R,3R)-2-(2,2-difluoroethyl)-3-methyl-2,3,4,9-tetrahydro-1H-pyrido[3,4-b]indol-1-yl)-3,5-difluorophenyl)cyclohexyl)methyl)azetidin-3-yl)methyl)-2-(2,6-dioxopiperidin-3-yl)-6,7-dihydropyrrolo[3,4-f]isoindole-1,3(2H,5H)-dione]",> 100 nM
9,"C[C@@H]1Cc2c([nH]c3ccccc23)[C@@H](c2c(F)cc(N3CCC4(CCN(C(=O)CN5Cc6cc7c(cc6C5)C(=O)N(C5CCC(=O)NC5=O)C7)C4)CC3)cc2F)N1CC(F)F (stereo partly drawn) [E 64, 3-(6-(2-(8-(4-((1R,3R)-2-(2,2-difluoroethyl)-3-methyl-2,3,4,9-tetrahydro-1H-pyrido[3,4-b]indol-1-yl)-3,5-difluorophenyl)-2,8-diazaspiro[4.5]decan-2-yl)-2-oxoethyl)-1-oxo-3,5,6,7-tetrahydropyrrolo[3,4-f]isoindol-2(1H)-yl)piperidine-2,6-dione]",< 10 nM
10,"C[C@@H]1Cc2cc(O)ccc2[C@@H](c2c(F)cc(N3CCC4(CCN(C(=O)CN5Cc6cc7c(cc6C5)C(=O)N(C5CCC(=O)NC5=O)C7)C4)C3)cc2F)N1CC(C)(F)F (stereo partly drawn) [E 28, 3-(6-(2-(7-(4-((1S,3R)-2-(2,2-difluoropropyl)-6-hydroxy-3-methyl-1,2,3,4-tetrahydroisoquinolin-1-yl)-3,5-difluorophenyl)-2,7-diazaspiro[4.4]nonan-2-yl)-2-oxoethyl)-1-oxo-3,5,6,7-tetrahydropyrrolo[3,4-f]isoindol-2(1H)-yl)piperidine-2,6-dione]",> 100 nM
11,"O=C1CCC(N2C(=O)c3cc4c(cc3C2=O)CN(C2CC(C(=O)N3CCCC(Oc5ccc([C@@H]6c7ccc(O)cc7CC[C@@H]6c6ccccc6)cc5)C3)C2)C4)C(=O)N1 (mixture of isomers) [E 22, Rac-2-(2,6-dioxopiperidin-3-yl)-6-(3-(3-(4-((1R,2S)-6-hydroxy-2-phenyl-1,2,3,4-tetrahydronaphthalen-1-yl)phenoxy)piperidine-1-carbonyl)cyclobutyl)-6,7-dihydropyrrolo[3,4-f]isoindole-1,3(2H,5H)-dione]",> 100 nM
12,"C[C@@H]1Cc2c([nH]c3ccccc23)[C@H](c2c(F)cc(CN3CCC4(CCC(CN5Cc6cc7c(cc6C5)C(=O)N(C5CCC(=O)NC5=O)C7=O)CC4)CC3)cc2F)N1CC(F)F (stereo partly drawn) [E 381, 6-((3-(4-((1S,3R)-2-(2,2-difluoroethyl)-3-methyl-2,3,4,9-tetrahydro-1H-pyrido[3,4-b]indol-1-yl)-3,5-difluorobenzyl)-3-azaspiro[5.5]undecan-9-yl)methyl)-2-(2,6-dioxopiperidin-3-yl)-6,7-dihydropyrrolo[3,4-f]isoindole-1,3(2H,5H)-dione]",> 100 nM
13,"C[C@@H]1Cc2c([nH]c3ccccc23)[C@@H](c2c(F)cc(N3CCC(N4CCC(C(=O)N5Cc6cc7c(cc6C5)C(=O)N(C5CCC(=O)NC5=O)C7=O)CC4)C3)cc2F)N1CC(F)F (stereo partly drawn) [E 110, 6-(1-(1-(4-((1R,3R)-2-(2,2-difluoroethyl)-3-methyl-2,3,4,9-tetrahydro-1H-pyrido[3,4-b]indol-1-yl)-3,5-difluorophenyl)pyrrolidin-3-yl)piperidine-4-carbonyl)-2-(2,6-dioxopiperidin-3-yl)-6,7-dihydropyrrolo[3,4-f]isoindole-1,3(2H,5H)-dione]",> 100 nM

# Same assay, conditions: compounds 16 hours, Table A does not say whether T47D or MCF7, read-out: Potency (DC50)
row,SMILES,DC50
1,"COc1c2c(cc3c1C(=O)N(C1CCC(=O)NC1=O)C3=O)CN(CC(=O)N1CCC3(CC1)CCN(c1ccc([C@@H]4c5ccc(O)cc5CC[C@@H]4c4ccccc4)cc1)CC3)C2 (stereo partly drawn) [E 420, 2-(2,6-dioxopiperidin-3-yl)-6-(2-(9-(4-((1R,2S)-6-hydroxy-2-phenyl-1,2,3,4-tetrahydronaphthalen-1-yl)phenyl)-3,9-diazaspiro[5.5]undecan-3-yl)-2-oxoethyl)-4-methoxy-6,7-dihydropyrrolo[3,4-f]isoindole-1,3(2H,5H)-dione]",10 to 100 nM
2,C[C@@H]1Cc2c(ccc3[nH]ncc23)[C@@H](c2c(F)cc(NC3CN(C(=O)[C@H]4CC[C@@H](N5Cc6cc7c(cc6C5)C(=O)N(C5CCC(=O)NC5=O)C7=O)CC4)C3)cc2F)N1CC(F)F (stereo partly shown) [E 424],10 to 100 nM
3,"C[C@@H]1Cc2cc(O)ccc2[C@@H](c2c(F)cc(OCC3CCC4(CC3)CN(C(=O)CN3Cc5cc6c(cc5C3)C(=O)N(C3CCC(=O)NC3=O)C6=O)C4)cc2F)N1CC(F)F (stereo partly drawn) [E 453, 6-(2-(7-((4-((1S,3R)-2-(2,2-difluoroethyl)-6-hydroxy-3-methyl-1,2,3,4-tetrahydroisoquinolin-1-yl)-3,5-difluorophenoxy)methyl)-2-azaspiro[3.5]nonan-2-yl)-2-oxoethyl)-2-(2,6-dioxopiperidin-3-yl)-6,7-dihydropyrrolo[3,4-f]isoindole-1,3(2H,5H)-dione]",< 10 nM
